In publication PMC10121968, “Fosgonimeton, a Novel Positive Modulator of the HGF/MET System, Promotes Neurotrophic and Procognitive Effects in Models of Dementia” (Neurotherapeutics, 2022):
Non-standard residues stand in square brackets, D forms with d. Residues, ends and D or L forms follow the SMILES beside them. *: point of attachment. Hexanoyl = CCCCCC(=O)*; Ahx = NCCCCCC(=O)O

System: primary rat hippocampal neurons
Assay: Neurite outgrowth assay (beta-III tubulin staining)
Format: cell-based
Conditions: 4 days, vs vehicle
Protocol: On day 0, rat hippocampal neurons from newborn pups were isolated and cultured in brain neuronal culture medium (neurobasal medium supplemented with 5% FBS, 2% B-27 supplement, and 0.003% gentamycin) at 37 °C under 5% CO2. At 1 day in vitro (DIV1), cells were transferred to a poly-D-lysine–coated 24-well plate at approximately 10,000 cells/well. Cells were then grown in […] of serum-free medium and treated with the following: 0.1% dimethyl sulfoxide (DMSO; vehicle), 10 nM dihydrotestosterone (positive control), 10 nM fosgo-AM, 1 nM fosgo-AM, 5 ng/ml HGF, or 5 ng/ml HGF + 1 nM fosgo-AM. All treatments contained a final concentration of 0.1% DMSO. For the neurite outgrowth assay, treatment media were refreshed on DIV3, and cells were processed for analysis on DIV4. For the synaptogenesis assay, treatment media were refreshed on DIV3 and DIV6, and cells were processed for analysis on DIV8. Processing for both the neurite outgrowth and the synaptogenesis assays was performed as follows: media were removed, and cells were fixed with 100% methanol for 20 min at RT before methanol was aspirated and each well was washed twice with Dulbecco’s phosphate-buffered saline (DPBS). Cells were permeabilized using 0.02% […] (ThermoFisher, Waltham, Massachusetts) in DPBS for 2 min at RT without shaking, and plates were blocked with 5% bovine serum albumin (BSA) in DPBS for 1 h at RT. Plates were then incubated overnight at 4 °C with gentle shaking with use of beta-III tubulin antibody (ab201740; Abcam, Boston, Massachusetts) to assess neurite outgrowth or with use of 1:500 rabbit anti–synaptobrevin-II antibody (Synaptic Systems, cat# 104 202, Göttingen, Germany) to assess synaptogenesis. After overnight incubation, plates were washed 3 times with DPBS and incubated for 1 h at RT with use of anti–rabbit immunoglobulin G–secondary antibody conjugated to Alexa Fluor 488 (Life Technologies, Carlsbad, California, 1:500). After 5 DPBS washes, coverslips were mounted on slides using fluorescent mounting medium (Golden Bridge International Labs, Bothell, Washington, cat# E19-s). Imaging was performed using the BX43 Olympus microscope driven by the standard “CellSens” software by Olympus. […] Ten images of single cells from a total of 2 assays were analyzed using NeuroJ plug-in for ImageJ to assess neurite outgrowth, as neurite length and the number of branches per neuron were counted for each cell. For the synaptogenesis assay, synaptic count (number of synapses) and synaptic strength (relative abundance of presynaptic vesicles per synapse as measured by synaptobrevin-II fluorescence intensity) were quantified for each cell. Data were assessed for normality (Shapiro–Wilk) and homoscedasticity (Brown-Forsythe). […]

## CCCCCC(=O)N[C@@H](Cc1ccc(O)cc1)C(=O)N[C@H](C(=O)NCCCCCC(N)=O)[C@@H](C)CC [fosgo-AM] (Hexanoyl-Tyr-Ile-[Ahx]-NH2)
1 nM fosgo-AM + 5 ng/mL HGF
  neurite length per cell: significantly increased neurite length per cell
10 nM
  neurite length per cell: significant increase in neurite length per cell
HGF ± fosgo-AM
  number of neurite branches: did not reach statistical significance
